Values quoted from earlier work as cited in PMC9186412, “Rational Framework for the Design of Trp- and Arg-Rich Peptide Antibiotics Against Multidrug-Resistant Bacteria” (Frontiers in Microbiology, 2022).
Read-outs that look alike come from different tables or passages of the source.

Experiments:
CDC AR isolates [1] = tested on: CDC AR isolates; set-up: key: S (green), susceptible; I (blue), intermediate; R (red), resistant; conditions: data provided by the CDC, ref CDC, cited from earlier work
Description: Supplement Table_3.XLSX, sheet "CDC AR isolates profiles" | column: G(-) strains

CDC AR isolates [2] = tested on: CDC AR isolates; set-up: key: S (green), susceptible; I (blue), intermediate; R (red), resistant; conditions: data provided by the CDC, ref CDC, cited from earlier work; remark: listed apart in the source
[3] = Enterobacter cloacae E62, CDC AR isolate
[4] = Enterobacter cloacae E544, CDC AR isolate
[5] = Enterobacter cloacae E545, CDC AR isolate
[6] = Enterobacter cloacae E546, CDC AR isolate
[7] = Enterococcus faecium EF500, CDC AR isolate
[8] = Enterococcus faecium EF671, CDC AR isolate
[9] = Enterococcus faecium EF672, CDC AR isolate
[10] = Escherichia coli EC541, CDC AR isolate
[11] = Escherichia coli EC543, CDC AR isolate
[12] = Escherichia coli EC544, CDC AR isolate
[13] = Escherichia coli EC549, CDC AR isolate
[14] = Klebsiella pneumoniae KP542, CDC AR isolate
[15] = Klebsiella pneumoniae KP548, CDC AR isolate
[16] = Klebsiella pneumoniae KP550, CDC AR isolate
[17] = Klebsiella pneumoniae KP552, CDC AR isolate
[18] = Enterococcus faecium EF673, CDC AR isolate
[19] = Staphylococcus aureus SA462, CDC AR isolate
[20] = Staphylococcus aureus SA463, CDC AR isolate
[21] = Staphylococcus aureus SA561, CDC AR isolate
[22] = Staphylococcus aureus SA461, CDC AR isolate

Structure (SMILES)	Antibiotic susceptibility profile (CDC AR isolates [1]; [3])	Antibiotic susceptibility profile (CDC AR isolates [1]; [4])	Antibiotic susceptibility profile (CDC AR isolates [1]; [5])	Antibiotic susceptibility profile (CDC AR isolates [1]; [6])	Antibiotic susceptibility profile (CDC AR isolates [1]; [7])	Antibiotic susceptibility profile (CDC AR isolates [1]; [8])	Antibiotic susceptibility profile (CDC AR isolates [1]; [9])	Antibiotic susceptibility profile (CDC AR isolates [1]; [10])	Antibiotic susceptibility profile (CDC AR isolates [1]; [11])	Antibiotic susceptibility profile (CDC AR isolates [1]; [12])	Antibiotic susceptibility profile (CDC AR isolates [1]; [13])	Antibiotic susceptibility profile (CDC AR isolates [1]; [14])	Antibiotic susceptibility profile (CDC AR isolates [1]; [15])	Antibiotic susceptibility profile (CDC AR isolates [1]; [16])	Antibiotic susceptibility profile (CDC AR isolates [1]; [17])	Antibiotic susceptibility profile (CDC AR isolates [2]; [18])	Antibiotic susceptibility profile (CDC AR isolates [1]; [19])	Antibiotic susceptibility profile (CDC AR isolates [1]; [20])	Antibiotic susceptibility profile (CDC AR isolates [1]; [21])	Antibiotic susceptibility profile (CDC AR isolates [2]; [22])	other results
CC1(C)S[C@@H]2[C@H](NC(=O)[C@H](N)c3ccccc3)C(=O)N2[C@H]1C(=O)O [Ampicillin]	R	R	R	R	R	S	S	R	R	R	R	R	R	R	R	S					Antibiotic susceptibility profile (CDC AR isolates [1]; Acinetobacter baumannii AB273, CDC AR isolate): R; Antibiotic susceptibility profile (CDC AR isolates [1]; Acinetobacter baumannii AB274, CDC AR isolate): R; Antibiotic susceptibility profile (CDC AR isolates [1]; Acinetobacter baumannii AB275, CDC AR isolate): R; Antibiotic susceptibility profile (CDC AR isolates [1]; Acinetobacter baumannii AB276, CDC AR isolate): R
CO[C@@]1(NC(=O)Cc2cccs2)C(=O)N2C(C(=O)O)=C(COC(N)=O)CS[C@@H]21 [Cefoxitin]	R	R	R	R				S	R	R	R	R	R	R	R		R	R	R	R	
CCO/N=C(\C(=O)N[C@@H]1C(=O)N2C(C(=O)[O-])=C(Sc3nc(-c4cc[n+](C)cc4)cs3)CS[C@H]12)c1nsc(N)n1 [Ceftaroline]								R	R	R	R						S	S	S	S	
O=C(N[C@H](CO)[C@H](O)c1ccc([N+](=O)[O-])cc1)C(Cl)Cl [Chloramphenicol]					I	R	I									S					
CCC[C@@H]1C[C@@H](C(=O)N[C@@H]([C@H]2O[C@H](SC)[C@H](O)[C@@H](O)[C@H]2O)[C@H](C)Cl)N(C)C1 [Clindamycin]																	S	S	S	R	
CCCCCCCCCC(=O)N[C@@H](Cc1c[nH]c2ccccc12)C(=O)N[C@H](CC(N)=O)C(=O)N[C@@H](CC(=O)O)C(=O)N[C@@H]1C(=O)NCC(=O)N[C@@H](CCCN)C(=O)N[C@@H](CC(=O)O)C(=O)N[C@H](C)C(=O)N[C@@H](CC(=O)O)C(=O)NCC(=O)N[C@H](CO)C(=O)N[C@@H]([C@H](C)CC(=O)O)C(=O)N[C@@H](CC(=O)c2ccccc2N)C(=O)O[C@@H]1C [Daptomycin]					S	S	S									S		S		S	
Nc1nc(-n2cc(C(=O)O)c(=O)c3cc(F)c(N4CC(O)C4)c(Cl)c32)c(F)cc1F [Delafloxacin]						S	S									S					
CN(C)c1cc(NC(=O)CNC(C)(C)C)c(O)c2c1C[C@H]1C[C@H]3[C@H](N(C)C)C(O)=C(C(N)=O)C(=O)[C@@]3(O)C(O)=C1C2=O [Tigecycline]	S	R	R	S				S	S	S	S	S	I	S	S						
